Paper PMC12730863 (Biomedicines, 2025)
Values belong to the compound of their own block, whether it stands above or below them.

Experiments:
HCT-8/V cells [1] = test: Cytotoxicity assay (MTT, 72 h); format: cell-based, human; details: for IC50 / Fold Resistance: chemotherapeutic drug alone; for Fold Resistance: relative to IC50 of HCT-8 without inhibitors
Method: All cell lines were grown in Dulbecco’s modified Eagle’s medium supplemented with 10% CellMax fetal bovine serum (#SA301.02.V) from Lanzhou Minhai Bio-Engineering Co. (Lanzhou, China) and maintained in a humidified incubator at 37 °C with 5% CO2.
(§1) Cells were seeded into 96-well plates at a concentration of 5 × 10^3 cells per well. Following cell attachment, the respective agents were added for a 72-h incubation period. Upon treatment completion, 500 μg/mL MTTwas added and the plates were incubated for 4 h. Subsequently, the supernatant was carefully aspirated, and 50 μL DMSO was added. Absorbance at 570 nm was measured via BioTek Synergy H1 plate reader (Agilent Technologies, Santa Clara, CA, USA). IC50 values were calculated with GraphPad Prism 8.0.

HCT-8 cells [2] = test: Cytotoxicity assay (MTT, 72 h); format: cell-based, human; details: for IC50 / Fold Resistance: HCT-8, chemotherapeutic drug alone; for Fold Resistance: relative to IC50 of HCT-8 without inhibitors
Method: as §1

ABCB1 [3] = test: Western blot of ABCB1 expression in HCT-8/V cells; format: cell-based, human; details: 10 μM and 30 μM H89 for 0.5, 3 and 72 h
Method: Cells were placed in pre-cooled lysis buffer (containing 0.1% sodium dodecyl sulfate, 0.5% sodium deoxycholate, 1% Nonidet P-40, 10 ng/mL phenylmethanesulfonyl fluoride and 0.03% aprotinin) and lysed on ice for 30 min. After centrifugation (14,000× g, 10 min), the clear supernatant was collected. Proteins were separated by 10% sodium dodecyl sulfatepolyacrylamidegel electrophoresis and subsequently transferred to polyvinylidene difluoride membranes. The membranes were blocked with 5% BSA at room temperature for 1 h, followed by sequential incubation with primary antibodies specific to the target protein and horseradish peroxidase-conjugated secondary antibodies. Ultimately, signal detection was conducted via chemiluminescence using a gel imaging system from Bio-Rad Laboratories.

HCT-8 cells [4] = test: Drug accumulation assay (flow cytometry); format: cell-based, human; details: HCT-8 parental cells
Method: (§2) Fluorescence imaging was performed using an Olympus CKX53 microscope (Tokyo, Japan) to assess the intracellular accumulation of the substrate drugs. Subsequently, cells were harvested, and fluorescent quantitative analysis was conducted using a Beckman CytoFLEX flow cytometer. The data were processed via FlowJo v10.8 software.

HCT-8/V cells [5] = test: Drug accumulation assay (flow cytometry); format: cell-based, human
Method: as §2

ABCB1 [6] = biological target: T1, ABCB1 (Homo sapiens, UniProt P08183); test: ABCB1 ATPase activity assay; format: biochemical; details: 5 mM Mg2+-ATP, 37 °C, 40 min, luminescence; read-out: IC50 of inhibition of the ATPase activity of ABCB1
T1 construct: purchased Promega Corporation V3601
Method: The detection was performed using anABCB1 ATPase Activity Assay Kit (#V3601, Promega Corporation, Madison, WI, USA). […] Subsequently, 5 mM Mg^2+-ATP was introduced to initiate the ATPase activity reaction. […] Finally, the emitted light was measured with a multi-functional microplate reader manufactured by Gene Company Limited (Chai Wan, Hong Kong).

T1 sequence (P08183 whole entry): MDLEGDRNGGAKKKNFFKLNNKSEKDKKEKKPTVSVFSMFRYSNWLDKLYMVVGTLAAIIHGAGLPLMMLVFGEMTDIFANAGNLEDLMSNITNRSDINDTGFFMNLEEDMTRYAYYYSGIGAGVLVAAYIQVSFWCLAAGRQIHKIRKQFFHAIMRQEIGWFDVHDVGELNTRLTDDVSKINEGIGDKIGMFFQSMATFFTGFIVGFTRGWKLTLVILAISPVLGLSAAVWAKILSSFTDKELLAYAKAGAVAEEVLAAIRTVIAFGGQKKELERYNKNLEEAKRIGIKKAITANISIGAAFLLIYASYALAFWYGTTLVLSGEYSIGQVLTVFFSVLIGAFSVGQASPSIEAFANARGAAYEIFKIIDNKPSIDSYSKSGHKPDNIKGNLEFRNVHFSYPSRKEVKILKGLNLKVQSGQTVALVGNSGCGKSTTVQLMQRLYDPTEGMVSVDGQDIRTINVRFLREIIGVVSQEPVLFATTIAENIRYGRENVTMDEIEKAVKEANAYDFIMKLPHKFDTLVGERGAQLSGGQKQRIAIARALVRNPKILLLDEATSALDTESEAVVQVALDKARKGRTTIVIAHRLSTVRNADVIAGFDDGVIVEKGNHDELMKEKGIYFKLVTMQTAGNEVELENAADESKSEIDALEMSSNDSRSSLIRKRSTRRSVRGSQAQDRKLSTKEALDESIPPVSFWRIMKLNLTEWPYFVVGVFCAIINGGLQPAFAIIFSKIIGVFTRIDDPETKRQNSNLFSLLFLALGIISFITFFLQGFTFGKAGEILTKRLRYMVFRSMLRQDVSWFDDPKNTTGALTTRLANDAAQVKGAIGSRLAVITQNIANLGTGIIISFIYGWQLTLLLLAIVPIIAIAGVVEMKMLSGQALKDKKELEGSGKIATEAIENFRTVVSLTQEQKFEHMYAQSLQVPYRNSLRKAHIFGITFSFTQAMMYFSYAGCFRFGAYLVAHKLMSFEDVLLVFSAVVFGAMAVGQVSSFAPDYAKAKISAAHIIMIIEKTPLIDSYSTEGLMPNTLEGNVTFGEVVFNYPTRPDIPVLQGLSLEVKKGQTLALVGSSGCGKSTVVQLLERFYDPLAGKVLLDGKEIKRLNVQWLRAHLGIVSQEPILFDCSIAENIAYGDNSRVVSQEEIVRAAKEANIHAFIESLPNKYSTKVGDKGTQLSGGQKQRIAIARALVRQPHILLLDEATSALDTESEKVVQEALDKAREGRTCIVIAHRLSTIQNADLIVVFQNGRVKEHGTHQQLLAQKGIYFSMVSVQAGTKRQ

Compound: CC[C@]1(O)C[C@H]2CN(CCc3c([nH]c4ccccc34)[C@@](C(=O)OC)(c3cc4c(cc3OC)N(C=O)[C@H]3[C@@](O)(C(=O)OC)[C@H](OC(C)=O)[C@]5(CC)C=CCN6CC[C@]43[C@@H]65)C2)C1 [Vincristine, vincristine]
IC50 (HCT-8/V cells [1]; Homo sapiens, 72 h MTT): > 30 µM
IC50 (HCT-8 cells [2]; Homo sapiens, 72 h MTT): 0.025 ± 0.002 µM

Compound: O=C1[O][Pt]2([NH][C@@H]3CCCC[C@H]3[NH]2)[O]C1=O [Oxaliplatin, oxaliplatin]
IC50 (HCT-8/V cells [1]; 72 h MTT): 10.1 ± 0.09 µM
Fold Resistance (HCT-8/V cells [1]): 1.08 fold
IC50 (HCT-8 cells [2]; 72 h MTT): 9.3 ± 0.549 µM
Fold Resistance (HCT-8 cells [2]): 1.0 fold

Compound: COc1cccc2c1C(=O)c1c(O)c3c(c(O)c1C2=O)C[C@@](O)(C(=O)CO)C[C@@H]3O[C@H]1C[C@H](N)[C@H](O)[C@H](C)O1 [Doxorubicin, doxorubicin]
IC50 (HCT-8/V cells [1]; Homo sapiens, 72 h MTT): 6.98 ± 0.444 µM
Fold Resistance (HCT-8/V cells [1]): 19.94 fold
Fold Resistance (HCT-8 cells [2]): 1.0 fold
IC50 (HCT-8 cells [2]; Homo sapiens, 72 h MTT): 0.35 ± 0.081 µM

IC50 (ABCB1 [6]): 246 nM
Compound: O=S(=O)(NCCNCC=Cc1ccc(Br)cc1)c1cccc2cnccc12 [H89, N-[2-(p-bromocinnamylamino)ethyl]-5-isoquinolinesulfonamide]
ABCB1 protein level relative to β-tubulin (ABCB1 [3]): did not alter ABCB1 protein level
Intracellular accumulation of doxorubicin and rhodamine 123 (HCT-8 cells [4]): not observed
Intracellular accumulation of substrate drugs compared with verapamil (HCT-8/V cells [5]; 10 μM H89 vs 10 μM verapamil): achieved or even exceeded the inhibitory effect of verapamil
Intracellular rhodamine 123 levels (HCT-8/V cells [5]; 30 μM H89): comparable to that in HCT-8 cells
Intracellular accumulation of doxorubicin and rhodamine 123 (HCT-8/V cells [5]; 1 h pretreatment, then 10 μM doxorubicin or rhodamine 123 for 2 h): elevated doxorubicin and rhodamine 123 levels in HCT-8/V cells dose-dependently
Fold Resistance to Doxorubicin in combination (HCT-8/V cells [1]; Doxorubicin + 3 μM of the labelled inhibitor): 4.53 fold
Fold Resistance to Doxorubicin in combination (HCT-8/V cells [1]; Doxorubicin + 10 μM of the labelled inhibitor): 1.85 fold
Fold Resistance to Oxaliplatin in combination (HCT-8/V cells [1]; Oxaliplatin + 3 μM of the labelled inhibitor): 0.89 fold
Fold Resistance to Oxaliplatin in combination (HCT-8/V cells [1]; Oxaliplatin + 10 μM of the labelled inhibitor): 0.79 fold
Fold Resistance to Vincristine in combination (HCT-8/V cells [1]; Vincristine + 3 μM of the labelled inhibitor): 5.60 fold
Fold Resistance to Vincristine in combination (HCT-8/V cells [1]; Vincristine + 10 μM of the labelled inhibitor): 1.88 fold
Cytotoxicity of H89 alone (HCT-8/V cells [1]; at concentrations below 30 μM, 72 h MTT): low cytotoxicity
Fold Resistance to Doxorubicin in combination (HCT-8 cells [2]; HCT-8, Doxorubicin + 3 μM of the labelled inhibitor): 1.06 fold
Fold Resistance to Doxorubicin in combination (HCT-8 cells [2]; HCT-8, Doxorubicin + 10 μM of the labelled inhibitor): 1.05 fold
Fold Resistance to Oxaliplatin in combination (HCT-8 cells [2]; HCT-8, Oxaliplatin + 3 μM of the labelled inhibitor): 0.96 fold
Fold Resistance to Oxaliplatin in combination (HCT-8 cells [2]; HCT-8, Oxaliplatin + 10 μM of the labelled inhibitor): 0.91 fold
Fold Resistance to Vincristine in combination (HCT-8 cells [2]; HCT-8, Vincristine + 3 μM of the labelled inhibitor): 0.96 fold
Fold Resistance to Vincristine in combination (HCT-8 cells [2]; HCT-8, Vincristine + 10 μM of the labelled inhibitor): 0.88 fold
Cytotoxicity of H89 alone (HCT-8 cells [2]; HCT-8, at concentrations below 30 μM, 72 h MTT): low cytotoxicity
